From BindingDB's records for doi:10.1016/j.bmc.2014.04.026 (Florida A&M University, 2014)
pKi: −log10 of the molar value.

Target: D(3) dopamine receptor (Homo sapiens, UniProt P35462)
Experiment: Displacement of [3H]N-methylspiperone from human dopamine D3 receptor by PDSP assay

Sequence of D(3) dopamine receptor (P35462 as listed by the source): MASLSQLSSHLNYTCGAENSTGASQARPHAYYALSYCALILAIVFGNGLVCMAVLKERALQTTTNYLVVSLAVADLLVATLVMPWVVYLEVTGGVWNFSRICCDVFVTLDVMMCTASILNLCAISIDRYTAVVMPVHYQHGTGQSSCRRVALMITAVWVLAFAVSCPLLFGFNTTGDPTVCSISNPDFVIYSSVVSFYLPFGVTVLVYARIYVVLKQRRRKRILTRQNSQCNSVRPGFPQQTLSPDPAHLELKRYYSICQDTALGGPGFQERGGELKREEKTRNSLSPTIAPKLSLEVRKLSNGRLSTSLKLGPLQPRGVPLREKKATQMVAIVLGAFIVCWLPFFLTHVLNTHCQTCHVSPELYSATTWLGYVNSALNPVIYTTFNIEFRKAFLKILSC

## Clc1ccc(N2C[C@H]3C[C@@H]2CN3CCCc2cc3ccccc3o2)cc1
  pKi: 6.17
